Columns and labels:
[1] = test system: patients with alcohol withdrawal syndrome; experiment: Open clinical study of CDP-choline in alcohol withdrawal syndrome; format: in vivo, humans
Experimental: The progress of alcohol withdrawal syndrome was assessed in an open study conducted in 197 patients. CDP-choline was administered at doses of 500 mg/d i.m. or 600 mg/d p.o. for 60 days. […] At 60 days, 55.83% of patients had given up drinking alcohol and 31.97% of patients drank much less.

[2] = test system: patients with alcohol withdrawal syndrome; experiment: Open, randomized, comparative clinical study of CDP-choline in alcohol withdrawal syndrome versus clomethiazole and vitamin B; format: in vivo, humans; settings: CDP-choline 500 mg i.m. every 12 h for 30 days, then 200 mg p.o. every 8 h, plus conventional therapy; versus conventional therapy alone; 20 patients per group; at 30 days
Experimental: An open, randomized and comparative study on the conventional therapy of alcohol withdrawal syndrome was conducted in 40 patients. Patients were randomly distributed in two groups of 20. One of the groups was used as control and received clomethiazole and vitamin B1, B6 and B12. This treatment regimen was maintained for 8 days, and then patients were given diazepam until completion of treatment (60 days). The other group of patients received the same treatment regimen plus CDP-choline 500 mg i.m. every 12 h for the first 30 days and CDP-choline 200 mg p.o. every 8 h for the remaining 30 days.

[3] = 197 patients, 500 mg/d i.m. or 600 mg/d p.o. for 60 days, at 60 days

## C[N+](C)(C)CCOP(=O)(O)OP(=O)([O-])OC[C@H]1O[C@@H](n2ccc(N)nc2=O)[C@H](O)[C@@H]1O [CDP-choline, cytidine diphosphate choline]
[1]; 500 mg/d i.m. or 600 mg/d p.o. for 60 days
  anxiety, tremor, disorientation, insomnia, dysarthria, tendency to suicide and neuritic pains: significant improvement
[1]; [3]
  patients who drank much less: 31.97%
  patients who had given up drinking alcohol: 55.83%
[1]; at 30 and 60 days following treatment, p<0.001
  assessments of progress of alcohol withdrawal syndrome: significant differences
[2]
  tremor incidence (p<0.05), cramps (p<0.05), asthenia (p<0.05), emotional lability (p<0.01), nervousness (p<0.05) and social withdrawal (p<0.05): significant differences versus control
